Data taken from US7122530B2, “24-hydroxyvitamin D, analogs and uses thereof” (Genzyme Corporation, priority 1998, dated 2006).

What was measured:
[1] = In vivo generation of 1α,24-(OH)2-D2 in vitamin D-deficient rats (plasma metabolites by HPLC); conditions: vitamin D-deficient rats; oral or intraperitoneal supplementation; HPLC
Protocol: 24-OH-D2 was administered (either oral or intraperitoneal supplementation) to vitamin D-deficient rats. Lipid extracts of the plasma were prepared and the metabolites purified by the method of Horst et al. (Horst, R. L., Koszewski, N. J. and Reinhardt, T. A., Biochem., 29:578–82 (1990) and incorporated herein by reference) described below for synthesizing standard biological 1α,24-(OH)2D2.

[2] = system: dermatitis (contact and ectopic) patients; experiment: Double blind study of oral 24-OH-D2 formulation in dermatitis (contact and ectopic); type: in vivo, human; conditions: daily oral 10.0 to 20.0 μg, four to six weeks
Protocol: An oral dosage formulation containing 24-OH-D2 is evaluated in a double blind study for therapeutic efficacy of the formulation in the treatment of dermatitis (contact and ectopic). The formulation evaluated contains 10.0 to 20.0 μg of 24-OH-D2. […] The patients are treated in an outpatient clinic and are divided into an experimental and control population. They are instructed to take the medication once a day, in the morning before breakfast.
In each patient (experimental and control) an area of the skin containing a lesion is selected which is ordinarily covered by clothing, and the patients are instructed not to expose the skin area selected for study to sunlight. The area of the lesion is estimated and recorded, and the lesion(s) is photographed. Relevant details of the photographic procedure are recorded so as to be reproduced when the lesions are next photographed (distance, aperture, angle, background, etc.).
Evaluations of erythema, scaling, and thickness are conducted at weekly intervals by a physician. The final evaluation is usually carried out at the end of four to six weeks of treatment.

[3] = system: patients with advanced androgen-independent prostate cancer; experiment: Open-label two-phase study of oral 24-(OH)-D2 in prostate cancer; type: in vivo; conditions: for progression of metastatic disease (CAT scans, X-rays and bone scans): second phase, after one and two years
Source text: Patients with advanced androgen-independent prostate cancer participate in an open-label study of 24-(OH)-D2. […] On admission to the study, patients begin a course of therapy with oral 24-(OH)-D2 lasting 26 weeks, while discontinuing any previous use of calcium supplements, vitamin D supplements, and vitamin D hormone replacement therapies. During treatment, the patients are monitored at regular intervals for: (1) hypercalcemia, hyperphosphatemia, hypercalciuria, hyperphosphaturia and other toxicity; (2) evidence of changes in the progression of metastatic disease; and (3) compliance with the prescribed test drug dosage.
The study is conducted in two phases. During the first phase, the maximal tolerated dosage (MTD) of daily oral 24-(OH)D2 is determined by administering progressively higher dosages to successive groups of patients. All doses are administered in the morning before breakfast. The first group of patients is treated with 25.0 μg of 24-(OH)D2. Subsequent groups of patients are treated with 50.0, 75.0 and 100.0 μg/day. Dosing is continued uninterrupted for the duration of the study unless serum calcium exceeds 11.6 mg/dL, or other toxicity of grade 3 or 4 is observed, in which case dosing is held in abeyance until resolution of the observed toxic effect(s) and then resumed at a level which has been decreased by 10.0 μg.
During the second phase, patients are treated with 24-(OH)D2 for 24 months at 0.5 and 1.0 times the MTD.

[4] = system: renal patients with secondary hyperparathyroidism; experiment: Clinical trial of 24-OH-D2 for secondary hyperparathyroidism in end stage renal disease; type: in vivo, human
Protocol: Thirty renal patients are enrolled in a clinical trial to study secondary hyperparathyroidism. The patients show baseline iPTH levels greater than 1000 pg/mL. An initial dose of 24-OH-D2 (50 μg 3 times/week) is increased (maximum, 100 μg 3 times/ week) or decreased as necessary to attain and maintain iPTH in the range of 150–300 pg/mL. After 11–12 weeks of treatment, the iPTH levels of the patients decrease to below 1000 pg/mL, and in many cases to below 500 pg/mL.

[5] = system: cytotoxic thymus-derived lymphocyte (CTL) activity; experiment: Immunological testing: CTL activity in mice immunized with allogeneic P815 tumor cells; type: in vivo, C57BL/6 mice; conditions: both tests: 5 micrograms daily i.p., or 10 micrograms i.p. twice; assay 10 days after immunization
Protocol: Female C57BL/6 mice are used between the ages of 9–12 weeks. Mice are given food and water ad libitum and are kept in a 12-hour light and 12-hour dark cycle.
A known balanced salt solution (BSS) is prepared and supplemented to 0.01 molar with HEPES buffer.
The test compound, 24-OH-D2, is dissolved in dimethylsulfoxide at final concentrations of 0.2 or 0.4 mg per ml. When working with vitamin D compounds, conditions of reduced lighting were employed.
Mice are apportioned at 4 per group and are inoculated intraperitoneally with 3×10^6 allogeneic P815 tumor cells and the resulting cytotoxic thymus-derived lymphocyte (CTL) activity is assessed 10 days later. Mice are treated by the intraperitoneal route with 25 microliters of test compound dissolved in dimethylsulfoxide or with dimethylsulfoxide only (vehicle control). […]
Ten days after immunization of mice with P815 cells, single spleen cell suspensions are prepared by passage of spleens through a steel mesh into BSS and are subsequently washed twice with BSS. […] Cytotoxic T lymphocyte activity is determined individually on spleen cells from each animal in each group and the results are expressed as the mean CTL activity (as percent specific Cr release) of each group ± the standard deviation.

SMILES: C=C1CC[C@H](O)C/C1=C/C=C1\CCC[C@]2(C)[C@@H]([C@H](C)/C=C/C(C)(O)C(C)C)CC[C@@H]12 (some centres unmarked) [24-OH-D2, 24-hydroxyvitamin D2]
- metabolite isolated from plasma lipid extracts versus standard 1α,24-(OH)2D2 [1]: co-migrated on HPLC with the standard 1α,24-(OH)2D2
- degree of erythema, scaling, and thickness versus control patients [2]: significantly reduces
- MTD level relative to what can be achieved with 1α,25-(OH)2D3 ([3]; first phase): 10- to 50 fold
- circulating levels of 1α,25-(OH)2D3 ([3]; first phase): suppressed, often to undetectable levels
- levels of circulating 24-(OH)D2 versus dosage administered ([3]; in vivo): increase proportionately with the dosage administered
- maximum levels of circulating 24-(OH)D2 ([3]; in vivo): above 100 pg/mL
- serum and urine calcium ([3]; in vivo): elevated in a dose responsive manner
- progression of metastatic disease (CAT scans, X-rays and bone scans) ([3]; higher dosage (1.0 times the MTD)): stable disease and partial or complete remission in many patients
- progression of metastatic disease (CAT scans, X-rays and bone scans) ([3]; lower dosage (0.5 times the MTD)): stable disease or partial remission in many patients
- bone pain associated with metastatic disease ([3]; treated with the MTD for at least six months): significantly diminished
- iPTH levels of the patients ([4]; after 11–12 weeks, baseline greater than 1000 pg/mL, 50 μg 3 times/week, titrated): below 1000 pg/mL
- iPTH levels, in many cases ([4]; after 11–12 weeks, in many cases): below 500 pg/mL
- episodes of hypercalcemia ([4]; during the study): few episodes of hypercalcemia
- CTL activity versus vehicle control [5]: statistically significant reduction
